Data published in US4914110A, “Quinoline derivatives, their preparation and therapeutic compositions containing the same” (Societe de Conseils de Recherches et d'Applications …, priority 1988, dated 1990).
Values after ≈ are worked out from the molar mass of the structure shown.

Columns and labels:
[1] = tested on: Staphylococcus aureus ATCC 6538; assay: bactericidal activity by serial dilution in Brain Heart Infusion Broth (MIC and MMC), S.a.; format: cell-based; details: 24 hours; for MIC: ATCC6538, 37° C., read-out: Minimal Inhibitory Concentration (MIC); for MBC: ATCC6538, sub-culture on Tryptone Soy Agar, 37° C., read-out: Minimal Microbiocidal Concentration (MMC)
Description: (§1) (A) The bactericidal activity of the compounds of the invention has been determined on various microorganisms, as hereinafter described.
(§2) Serial dilutions of the test and reference compounds are prepared in Brain Heart Infusion Broth (Oxoid CM225) in two-fold steps from 1000 μg/ml down to 0.5 μg/ml.
(§3) The test organisms are cultured on Tryptone Soy Agar (TSA, Oxoid CM131) and checked for viability and purity. Standardized inocula are then ppepared by inoculating slopes of TSA and incubating at 37° C. for 24 hours. The resultant bacterial growth is then removed by the addition of sterile physiological saline and shaking with glass beads. The suspensions of organisms are then standardized to give 50% transmission at […] on an SP600 Spectrophotometer. Calibration curves show this to yield approximately 10^8 colony forming units per ml.
(§4) 0.1 ml aliquots of these suspensions are then used to inoculate each of the prepared serial dilutions of the compounds in Brain Heart Infusion Broth.
(§5) The sets of dilutions are incubated at 37° C. for 24 hours and then inspected for the presence or absence of growth as shown by turbidity of the medium. The lowest concentration showing no growth of the test organism is recorded as the Minimal Inhibitory Concentration (MIC) of the compound for that organism.
(§6) Each of the tubes showing no growth are then sub-cultured onto plates of Tryptone Soy Agar and incubated at 37° C. for 24 hours. The plates are then inspected for the presence or absence of growth at the inoculation points. […] MIC and MMC are expressed in μg/ml.
(§7) The results are presented in the following table, in comparison with those for two reference compounds, nitrofuroxazide and pipemidic acid. The abreviations used in the table have the following meanings:
S.a. Staphylococcus aureus

[2] = tested on: Streptococcus pyogenes NCTC 8198; assay: bactericidal activity by serial dilution in Brain Heart Infusion Broth (MIC and MMC), S.p.; format: cell-based; details: 24 hours; for MIC: NCTC8198, 37° C., read-out: Minimal Inhibitory Concentration (MIC); for MBC: NCTC8198, sub-culture on Tryptone Soy Agar, 37° C., read-out: Minimal Microbiocidal Concentration (MMC)
Description: as §1, §2, §3, §4, §5, §6, §7
S.p. Streptococcus pyogenes

[3] = tested on: Pseudomonas aeruginosa ATCC 9027; assay: bactericidal activity by serial dilution in Brain Heart Infusion Broth (MIC and MMC), P.a.; format: cell-based; details: 24 hours; for MIC: ATCC9027, 37° C., read-out: Minimal Inhibitory Concentration (MIC); for MBC: ATCC9027, sub-culture on Tryptone Soy Agar, 37° C., read-out: Minimal Microbiocidal Concentration (MMC)
Description: as §1, §2, §3, §4, §5, §6, §7
P.a. Pseudomonas aeruginosa

[4] = tested on: Escherichia coli NCTC 8196; assay: bactericidal activity by serial dilution in Brain Heart Infusion Broth (MIC and MMC), E.c.; format: cell-based; details: 24 hours; for MIC: NCTC8196, 37° C., read-out: Minimal Inhibitory Concentration (MIC); for MBC: NCTC8196, sub-culture on Tryptone Soy Agar, 37° C., read-out: Minimal Microbiocidal Concentration (MMC)
Description: as §1, §2, §3, §4, §5, §6
(§8) The results are presented in the following table, in comparison with those for two reference compounds, nitrofuroxazide and pipemidic acid. The abreviations used in the table have the following meanings: […]

[5] = tested on: Proteus mirabilis NCTC 8559; assay: bactericidal activity by serial dilution in Brain Heart Infusion Broth (MIC and MMC), P.m.; format: cell-based; details: 24 hours; for MIC: NCTC8559, 37° C., read-out: Minimal Inhibitory Concentration (MIC); for MBC: NCTC8559, sub-culture on Tryptone Soy Agar, 37° C., read-out: Minimal Microbiocidal Concentration (MMC)
Description: as §1, §2, §3, §4, §5, §6, §8

[6] = tested on: Salmonella enteritidis NCTC 6676; assay: bactericidal activity by serial dilution in Brain Heart Infusion Broth (MIC and MMC), S.e.; format: cell-based; details: Salmonella enterica, 37° C., 24 hours; for MIC: read-out: Minimal Inhibitory Concentration (MIC); for MBC: sub-culture on Tryptone Soy Agar, read-out: Minimal Microbiocidal Concentration (MMC)
Description: as §1, §2, §3, §4, §5, §6, §7
S.e. Salmonella enteritidis

[7] = tested on: Shigella boydii NCTC 9328; assay: bactericidal activity by serial dilution in Brain Heart Infusion Broth (MIC and MMC), S.b.; format: cell-based; details: 24 hours; for MIC: NCTC9328, 37° C., read-out: Minimal Inhibitory Concentration (MIC); for MBC: NCTC9328, sub-culture on Tryptone Soy Agar, 37° C., read-out: Minimal Microbiocidal Concentration (MMC)
Description: as §1, §2, §3, §4, §5, §6, §7
S.b. Shigella boydii NCTC 9328

solubility in water = format: physicochemical
[8] = solubility in dimethylsulfoxide; format: physicochemical
[9] = tested on: Vibrio Cholerae, Vibrio parahemolyticus, Vibrio alginolyticus, Aeromonas hydrophila Sobria and Salmonella; assay: bacteriostatic activity, preceding experiment (comparison within the series); format: cell-based; details: compared with the compounds of examples 1 to 5
Description: (B) The bacteriostatic activity of the compounds of the invention has also been searched against microorganisms more particularly related with gastro-enteritis.
This experiment was conducted in Mueller-Hinton gelose with tested compounds dissolved in dimethylsulfoxide (control dimethylsulfoxide was provided) at increasing concentrations from 0.01 to 100 μg. The strains used were Vibrio Cholerae (3 strains respectively from Europe, Africa and Conth-East-Asia), Vibrio parahemolyticus, Vibrio alginolyticus, Aeromonas hydrophila Sobria and Salmonella. Minimum inhibitory concentration was found for the 7 compounds of the invention, between 0.5 and 1 μg for the Salmonella strain and between 0.1 and 0.5 μg for the other strains, which denotes a strong bacteriostatic activity.

SMILES	MIC [1] [µg/mL]	MBC [1] [µg/mL]	MIC [2] [µg/mL]	MBC [2] [µg/mL]	MIC [3] [µg/mL]	MBC [3] [µg/mL]	MIC [4] [µg/mL]	MBC [4] [µg/mL]	MIC [5] [µg/mL]	MBC [5] [µg/mL]	MIC [6] [µg/mL]	MBC [6] [µg/mL]	MIC [7] [µg/mL]	MBC [7] [µg/mL]	solubility in water (solubility in water)	solubility in dimethylsulfoxide [8]	relative activity in preceding experiment [9]
CCn1cc(C(=O)O)c(=O)c2cc(F)cc(F)c21 [Example 1, 1,4-dihydro-3-carboxy-6,8-difluoro-1-ethyl-4-oxo-quinoline]	32 (≈ 126 µM)	32 (≈ 126 µM)	16 (≈ 63.2 µM)	32 (≈ 126 µM)	32 (≈ 126 µM)	64 (≈ 253 µM)	8 (≈ 31.6 µM)	8 (≈ 31.6 µM)	1 (≈ 3.95 µM)	2 (≈ 7.9 µM)	2 (≈ 7.9 µM)	4 (≈ 15.8 µM)	1 (≈ 3.95 µM)	1 (≈ 3.95 µM)	insoluble	soluble	
O=C(O)c1cn(CCF)c2c(F)cc(F)cc2c1=O [Example 2]	4 (≈ 14.7 µM)	8 (≈ 29.5 µM)	32 (≈ 118 µM)	32 (≈ 118 µM)	8 (≈ 29.5 µM)	8 (≈ 29.5 µM)	32 (≈ 118 µM)	32 (≈ 118 µM)	4 (≈ 14.7 µM)	8 (≈ 29.5 µM)	4 (≈ 14.7 µM)	8 (≈ 29.5 µM)	8 (≈ 29.5 µM)	16 (≈ 59 µM)	insoluble	insoluble	
O=C(O)c1cn(COCCO)c2c(F)cc(F)cc2c1=O [Example 3]	4 (≈ 13.4 µM)	8 (≈ 26.7 µM)	2 (≈ 6.68 µM)	4 (≈ 13.4 µM)	8 (≈ 26.7 µM)	16 (≈ 53.5 µM)	4 (≈ 13.4 µM)	8 (≈ 26.7 µM)	32 (≈ 107 µM)	32 (≈ 107 µM)	32 (≈ 107 µM)	32 (≈ 107 µM)	8 (≈ 26.7 µM)	8 (≈ 26.7 µM)	insoluble	soluble	
O=C(O)c1cn(CC2CC2)c2c(F)cc(F)cc2c1=O [Example 4]	64 (≈ 229 µM)	64 (≈ 229 µM)	4 (≈ 14.3 µM)	4 (≈ 14.3 µM)	8 (≈ 28.6 µM)	16 (≈ 57.3 µM)	64 (≈ 229 µM)	64 (≈ 229 µM)	1 (≈ 3.58 µM)	2 (≈ 7.16 µM)	2 (≈ 7.16 µM)	4 (≈ 14.3 µM)	32 (≈ 115 µM)	32 (≈ 115 µM)	insoluble	soluble	
O=C(O)c1cn(Cc2ccc([N+](=O)[O-])o2)c2c(F)cc(F)cc2c1=O [Example 5]	16 (≈ 45.7 µM)	64 (≈ 183 µM)	8 (≈ 22.8 µM)	32 (≈ 91.4 µM)	2 (≈ 5.71 µM)	2 (≈ 5.71 µM)	64 (≈ 183 µM)	64 (≈ 183 µM)	16 (≈ 45.7 µM)	32 (≈ 91.4 µM)	125 (≈ 357 µM)	125 (≈ 357 µM)	32 (≈ 91.4 µM)	32 (≈ 91.4 µM)	insoluble	soluble	
O=C(O)c1cn(CC2CCCCC2)c2c(F)cc(F)cc2c1=O [Example 6]	8 (≈ 24.9 µM)	16 (≈ 49.8 µM)	16 (≈ 49.8 µM)	16 (≈ 49.8 µM)	4 (≈ 12.4 µM)	8 (≈ 24.9 µM)	64 (≈ 199 µM)	64 (≈ 199 µM)	8 (≈ 24.9 µM)	8 (≈ 24.9 µM)	4 (≈ 12.4 µM)	4 (≈ 12.4 µM)	8 (≈ 24.9 µM)	8 (≈ 24.9 µM)	insoluble	insoluble	less active
O=C(O)c1cn(Cc2c(Cl)cccc2Cl)c2c(F)cc(F)cc2c1=O [Example 7]	8 (≈ 20.8 µM)	8 (≈ 20.8 µM)	32 (≈ 83.3 µM)	64 (≈ 167 µM)	8 (≈ 20.8 µM)	8 (≈ 20.8 µM)	1 (≈ 2.6 µM)	2 (≈ 5.21 µM)	2 (≈ 5.21 µM)	4 (≈ 10.4 µM)	2 (≈ 5.21 µM)	4 (≈ 10.4 µM)	16 (≈ 41.6 µM)	32 (≈ 83.3 µM)	insoluble	insoluble	less active
O=C(N/N=C/c1ccc([N+](=O)[O-])o1)c1ccc(O)cc1 [Nif., Nifuroxazide, reference compound]	8 (≈ 29.1 µM)	8 (≈ 29.1 µM)	1 (≈ 3.63 µM)	1 (≈ 3.63 µM)	500 (≈ 1820 µM)	500 (≈ 1820 µM)	4 (≈ 14.5 µM)	4 (≈ 14.5 µM)	500 (≈ 1820 µM)	500 (≈ 1820 µM)	500 (≈ 1820 µM)	500 (≈ 1820 µM)	8 (≈ 29.1 µM)	8 (≈ 29.1 µM)			
CCn1cc(C(=O)O)c(=O)c2cnc(N3CCNCC3)nc21 [Pip., Pipemidic acid, reference compound]	2 (≈ 6.59 µM)	250 (≈ 824 µM)	4 (≈ 13.2 µM)	125 (≈ 412 µM)	1 (≈ 3.3 µM)	16 (≈ 52.7 µM)	4 (≈ 13.2 µM)	4 (≈ 13.2 µM)	4 (≈ 13.2 µM)	8 (≈ 26.4 µM)	4 (≈ 13.2 µM)	8 (≈ 26.4 µM)	4 (≈ 13.2 µM)	4 (≈ 13.2 µM)			
